Measured values reported in patent US20260224589A1 (priority 2023, published 2026).

Tested on: AsPC-1 cells
Assay: phospho-ERK HTRF assay in AsPC-1 cells, 4 h treatment
Type: cell-based
Settings: Homo sapiens, ASPC1; AsPC-1, 4H; Table 1a class column; read-out: pERK IC50 activity range (*)

Row | SMILES | IC50 [nM]
1 | CN(C)C(=O)c1nn2c(c1Cl)CN(c1nc(OC[C@@]34CCCN3C[C@H](F)C4)nc3c1CO[C@H](c1cc(N)cc(F)c1C(F)(F)F)C3)CCC2 [compound 402] | 10 to 30
2 | Cc1cc(N)cc([C@@H]2Cc3nc(OC[C@@]45CCCN4C/C(=C\F)C5)nc(N4CCCn5nc(C(=O)N6CCC6)cc5C4)c3CO2)c1C(F)(F)F [compound 403] | 10 to 30
3 | Cc1cc(N)cc([C@@H]2Cc3nc(OC[C@@]45CCCN4C/C(=C\F)C5)nc(N4CCCn5nc(C(=O)N6CCCC6)cc5C4)c3CO2)c1C(F)(F)F [compound 404] | 10 to 30
4 | Cc1cc(N)cc([C@@H]2Cc3nc(OC[C@@]45CCCN4C[C@H](F)C5)nc(N4CCCn5nc(C(=O)N(C)C)c(C)c5C4)c3CO2)c1C(F)(F)F [compound 405] | 10 to 30
5 | Cc1c(C(=O)N(C)C)nn2c1CN(c1nc(OC[C@@]34CCCN3CC(=C(F)F)C4)nc3c1CO[C@H](c1cc(N)cc(F)c1C(F)(F)F)C3)CCC2 [compound 407] | 10 to 30
6 | CC#Cc1cc(N)cc([C@@H]2Cc3nc(OC[C@@]45CCCN4C[C@H](F)C5)nc(N4CCCn5nc(C(=O)N(C)C)cc5C4)c3CO2)c1C(F)(F)F [compound 408] | 10 to 30
7 | CCc1c(C(=O)N(C)C)nn2c1CN(c1nc(OC[C@@]34CCCN3C[C@H](F)C4)nc3c1CO[C@H](c1cc(N)cc(Cl)c1C(F)(F)F)C3)CCC2 [compound 409] | 10 to 30

Same assay, conditions: Homo sapiens, ASPC1; AsPC-1, 4h; Table 1b; read-out: PERK IC50 (AsPC-1, 4h)

Row | SMILES | IC50 [nM]
8 | Cc1c(C(=O)N(C)C)nn2c1CN(c1nc(OC[C@@]34CCCN3C/C(=C\F)C4)nc3c1CO[C@H](c1cc(N)cc(Cl)c1C(F)(F)F)C3)CCC2 [compound 300, 5-((S)-7-(5-amino-3-chloro-2-(trifluoromethyl)phenyl)-2-(((S,Z)-2-(fluoromethylene)tetrahydro-1H-pyrrolizin-7a(5H)-yl)methoxy)-7,8-dihydro-5H-pyrano[4,3-d]pyrimidin-4-yl)-N,N,3-trimethyl-5,6,7,8-tetrahydro-4H-pyrazolo[1,5-a][1,4]diazepine-2-carboxamide] | < 10
9 | CN(C)C(=O)c1cc2n(n1)CCCN(c1nc(OC[C@@]34CCCN3C/C(=C\F)C4)nc3c1CO[C@H](c1cc(N)cc(Cl)c1C(F)(F)F)C3)C2 [compound 301, 5-((S)-7-(5-amino-3-chloro-2-(trifluoromethyl)phenyl)-2-(((S,Z)-2-(fluoromethylene)tetrahydro-1H-pyrrolizin-7a(5H)-yl)methoxy)-7,8-dihydro-5H-pyrano[4,3-d]pyrimidin-4-yl)-N,N-dimethyl-5,6,7,8-tetrahydro-4H-pyrazolo[1,5-a][1,4]diazepine-2-carboxamide] | < 10
10 | Cc1cc(N)cc([C@@H]2Cc3nc(OC[C@@]45CCCN4C/C(=C\F)C5)nc(N4CCCn5nc(C(=O)N(C)C)cc5C4)c3CO2)c1C(F)(F)F [compound 302, 5-((S)-7-(5-amino-3-methyl-2-(trifluoromethyl)phenyl)-2-(((S,Z)-2-(fluoromethylene)tetrahydro-1H-pyrrolizin-7a(5H)-yl)methoxy)-7,8-dihydro-5H-pyrano[4,3-d]pyrimidin-4-yl)-N,N-dimethyl-5,6,7,8-tetrahydro-4H-pyrazolo[1,5-a][1,4]diazepine-2-carboxamide] | < 10
11 | CN(C)C(=O)c1nn2c(c1Cl)CN(c1nc(OC[C@@]34CCCN3C/C(=C\F)C4)nc3c1CO[C@H](c1cc(N)cc(F)c1C(F)(F)F)C3)CCC2 [compound 410] | < 10
12 | CN(C)C(=O)c1cc2n(n1)CCCN(c1nc(OC[C@@]34CCCN3CC(=C(F)F)C4)nc3c1CO[C@H](c1cc(N)cc(Cl)c1C(F)(F)F)C3)C2 [compound 411] | < 10
13 | CN(C)C(=O)c1nn2c(c1F)CN(c1nc(OC[C@@]34CCCN3C/C(=C\F)C4)nc3c1CO[C@H](c1cc(N)cc(Cl)c1C(F)(F)F)C3)CCC2 [compound 412] | < 10
14 | CCN(C)C(=O)c1cc2n(n1)CCCN(c1nc(OC[C@@]34CCCN3C/C(=C\F)C4)nc3c1CO[C@H](c1cc(N)cc(C)c1C(F)(F)F)C3)C2 [compound 413] | < 10
15 | Cc1c(C(=O)N(C)C)nn2c1CN(c1nc(OC[C@@]34CCCN3C[C@H](F)C4)nc3c1CO[C@H](c1cc(N)cc(Cl)c1C(F)(F)F)C3)CCC2 [compound 414] | < 10
16 | Cc1cc(N)cc([C@@H]2Cc3nc(OC[C@@]45CCCN4C/C(=C\F)C5)nc(N4CCCn5nc(C(=O)N(C)C)c(C)c5C4)c3CO2)c1C(F)(F)F [compound 415] | < 10
17 | Cc1cc(N)cc([C@@H]2Cc3nc(OC[C@@]45CCCN4CC(=C(F)F)C5)nc(N4CCCn5nc(C(=O)N(C)C)c(C)c5C4)c3CO2)c1C(F)(F)F [compound 416] | < 10
18 | Cc1c(C(=O)N(C)C)nn2c1CN(c1nc(OC[C@@]34CCCN3C/C(=C\F)C4)nc3c1CO[C@H](c1cc(N)cc(F)c1C(F)(F)F)C3)CCC2 [compound 417] | < 10
19 | CC#Cc1cc(N)cc([C@@H]2Cc3nc(OC[C@@]45CCCN4C[C@H](F)C5)nc(N4CCCn5nc(C(=O)N(C)C)c(C)c5C4)c3CO2)c1C(F)(F)F [compound 419] | < 10
20 | CC#Cc1cc(N)cc([C@@H]2Cc3nc(OC[C@@]45CCCN4C/C(=C\F)C5)nc(N4CCCn5nc(C(=O)N6CCCC6)cc5C4)c3CO2)c1C(F)(F)F [compound 420] | < 10
21 | Cc1c(C(=O)N2CCCC2)nn2c1CN(c1nc(OC[C@@]34CCCN3C/C(=C\F)C4)nc3c1CO[C@H](c1cc(N)cc(Cl)c1C(F)(F)F)C3)CCC2 [compound 421] | < 10
22 | Nc1cc(Cl)c(C(F)(F)F)c([C@@H]2Cc3nc(OC[C@@]45CCCN4C/C(=C\F)C5)nc(N4CCCn5nc(C(=O)N6CCCC6)c(Cl)c5C4)c3CO2)c1 [compound 422] | < 10
23 | CC#Cc1cc(N)cc([C@@H]2Cc3nc(OC[C@@]45CCCN4C[C@H](F)C5)nc(N4CCCn5nc(C(=O)N(C)C)c(CC)c5C4)c3CO2)c1C(F)(F)F [compound 423] | < 10
24 | CC#Cc1cc(N)cc([C@@H]2Cc3nc(OC[C@@]45CCCN4C/C(=C\F)C5)nc(N4CCCn5nc(C(=O)N(C)C)c(CC)c5C4)c3CO2)c1C(F)(F)F [compound 424] | < 10
25 | CCc1c(C(=O)N(C)C)nn2c1CN(c1nc(OC[C@@]34CCCN3C/C(=C\F)C4)nc3c1CO[C@H](c1cc(N)cc(Cl)c1C(F)(F)F)C3)CCC2 [compound 425] | < 10
26 | CC#Cc1cc(N)cc([C@@H]2Cc3nc(OC[C@@]45CCCN4C/C(=C\F)C5)nc(N4CCCn5nc(C(=O)N(C)C)c(C)c5C4)c3CO2)c1C(F)(F)F [compound 426] | < 10

Row | SMILES | IC50 [nM]
27 | CC#Cc1cc(N)cc([C@@H]2Cc3nc(OC[C@@]45CCCN4C/C(=C\F)C5)nc(N4CCCn5nc(C(=O)N(C)C)c(Cl)c5C4)c3CO2)c1C(F)(F)F [compound 427] | < 10
28 | CC#Cc1cc(N)cc([C@@H]2Cc3nc(OC[C@@]45CCCN4C/C(=C\F)C5)nc(N4CCCn5nc(C(=O)N(C)CC)cc5C4)c3CO2)c1C(F)(F)F [compound 428] | < 10
29 | CC#Cc1cc(N)cc([C@@H]2Cc3nc(OC[C@@]45CCCN4C/C(=C\F)C5)nc(N4CCCn5nc(C(=O)N6CCCC6)c(C)c5C4)c3CO2)c1C(F)(F)F [compound 429] | < 10
30 | CC#Cc1cc(N)cc([C@@H]2Cc3nc(OC[C@@]45CCCN4C/C(=C\F)C5)nc(N4CCCn5nc(C(=O)N6CCCC6)c(Cl)c5C4)c3CO2)c1C(F)(F)F [compound 430] | < 10
31 | CCN(C)C(=O)c1nn2c(c1Cl)CN(c1nc(OC[C@@]34CCCN3C/C(=C\F)C4)nc3c1CO[C@H](c1c(F)c(N)cc(Cl)c1C(F)(F)F)C3)CCC2 [compound 432] | < 10
32 | CCN(C)C(=O)c1nn2c(c1Cl)CN(c1nc(OC[C@@]34CCCN3C[C@H](F)C4)nc3c1CO[C@H](c1c(F)c(N)cc(Cl)c1C(F)(F)F)C3)CCC2 [compound 433] | < 10
33 | CCN(CC)C(=O)c1nn2c(c1Cl)CN(c1nc(OC[C@@]34CCCN3C/C(=C\F)C4)nc3c1CO[C@H](c1c(F)c(N)cc(Cl)c1C(F)(F)F)C3)CCC2 [compound 434] | < 10
34 | CC#Cc1cc(N)c(F)c([C@@H]2Cc3nc(OC[C@@]45CCCN4C[C@H](F)C5)nc(N4CCCn5nc(C(=O)N(C)C)c(Cl)c5C4)c3CO2)c1C(F)(F)F [compound 435] | < 10
35 | CN(C)C(=O)c1nn2c(c1Cl)CN(c1nc(OC[C@@]34CCCN3C/C(=C\F)C4)nc3c1CO[C@H](c1c(F)c(N)cc(Cl)c1Cl)C3)CCC2 [compound 436] | < 10
36 | CC#Cc1cc(N)c(F)c([C@@H]2Cc3nc(OC[C@@]45CCCN4C/C(=C\F)C5)nc(N4CCCn5nc(C(=O)N(C)C)c(Cl)c5C4)c3CO2)c1C(F)(F)F [compound 437] | < 10
37 | CN(C)C(=O)c1nn2c(c1Cl)CN(c1nc(OC[C@@]34CCCN3C/C(=C\F)C4)nc3c1COC(c1cc(N)cc(Cl)c1C1CC1)C3)CCC2 (stereo partly drawn) [compound 438] | < 10
38 | CN(C)C(=O)c1nn2c(c1Cl)CN(c1nc(OC[C@@]34CCCN3C/C(=C\F)C4)nc3c1CO[C@H](c1cc(N)cc(Cl)c1C1CC1)C3)CCC2 [compound 439] | < 10
39 | Cc1c(C(=O)N(C)C)nn2c1CN(c1nc(OC[C@@]34CCCN3C/C(=C\F)C4)nc3c1CO[C@H](c1c(F)c(N)cc(Cl)c1C(F)(F)F)C3)CCC2 [compound 440] | < 10
40 | Cc1c(C(=O)N(C)C)nn2c1CN(c1nc(OC[C@@]34CCCN3C[C@H](F)C4)nc3c1CO[C@H](c1c(F)c(N)cc(Cl)c1C(F)(F)F)C3)CCC2 [compound 441] | < 10
41 | Cc1c(C(=O)N(C)C)nn2c1CN(c1nc(OC[C@@]34CCCN3C/C(=C\F)C4)nc3c1CO[C@H](c1c(F)c(N)cc(Cl)c1Cl)C3)CCC2 [compound 442] | < 10
42 | CC#Cc1cc(N)c(F)c([C@@H]2Cc3nc(OC[C@@]45CCCN4C[C@H](F)C5)nc(N4CCCn5nc(C(=O)N(C)C)c(C)c5C4)c3CO2)c1C(F)(F)F [compound 444] | < 10
43 | Cc1c(C(=O)N(C)C)nn2c1CN(c1nc(OC[C@]34CCCN3C[C@@H](C=C(F)F)C4)nc3c1CO[C@H](c1cc(N)cc(Cl)c1C(F)(F)F)C3)CCC2 [compound 447] | < 10
44 | CON(C)C(=O)c1nn2c(c1Cl)CN(c1nc(OC[C@@]34CCCN3C[C@H](F)C4)nc3c1CO[C@H](c1cc(N)cc(Cl)c1C(F)(F)F)C3)CCC2 [compound 448] | < 10
45 | CON(C)C(=O)c1nn2c(c1Cl)CN(c1nc(OC[C@@]34CCCN3C/C(=C\F)C4)nc3c1COC(c1cc(N)cc(Cl)c1C(F)(F)F)C3)CCC2 (stereo partly drawn) [compound 449] | < 10
